# Measured values from paper PMC5218480 (PLoS ONE, 2017).
# Tested on: MV-4-11 cells
# Assay: Gene expression microarray analysis (Affymetrix PrimeView) and GSEA
# Format: cell-based, human
# Parameters: RFU PODN (11730768_x_at) / Fold change /veh PODN (11730768_x_at) / RFU LINC00158 (11744669_a_at) / Fold change /veh LINC00158 (11744669_a_at) / RFU DUSP10 (11751237_a_at) / Fold change /veh DUSP10 (11751237_a_at) / RFU ID3 (11757404_x_at) / Fold change /veh ID3 (11757404_x_at) / RFU PLEKHG5 (11737974_s_at) / Fold change /veh PLEKHG5 (11737974_s_at) / RFU LRRC4B (11730491_at) / Fold change /veh LRRC4B (11730491_at) / RFU GIMAP4 (11747438_a_at) / Fold change /veh GIMAP4 (11747438_a_at) / RFU KRT8 (11758183_x_at) / Fold change /veh KRT8 (11758183_x_at) / RFU CNN1 (11734310_a_at) / Fold change /veh CNN1 (11734310_a_at) / RFU VPS37D (11726825_at) / Fold change /veh VPS37D (11726825_at) / RFU C10orf10 (11716522_x_at) / Fold change /veh C10orf10 (11716522_x_at) / RFU KIR2DL2 /// KIR2DL4 /// KIR2DL5A /// KIR2DL5B /// KIR2DS1 /// KIR2DS2 /// KIR2DS3 /// KIR2DS4 /// KIR3DL3 /// KIR3DL3 /// KIR3DS1 (11738374_at) / Fold change /veh KIR2DL2 /// KIR2DL4 /// KIR2DL5A /// KIR2DL5B /// KIR2DS1 /// KIR2DS2 /// KIR2DS3 /// KIR2DS4 /// KIR3DL3 /// KIR3DL3 /// KIR3DS1 (11738374_at) / RFU C1QL1 (11718748_at) / Fold change /veh C1QL1 (11718748_at) / RFU TMPRSS4 (11747572_a_at) / Fold change /veh TMPRSS4 (11747572_a_at) / RFU HAMP (11756126_x_at) / Fold change /veh HAMP (11756126_x_at) / RFU RNFT2 (11725882_a_at) / Fold change /veh RNFT2 (11725882_a_at) / RFU NR4A2 (11747474_a_at) / Fold change /veh NR4A2 (11747474_a_at) / RFU ABCC12 (11746883_a_at) / Fold change /veh ABCC12 (11746883_a_at) / RFU TMEM136 (11760407_x_at) / Fold change /veh TMEM136 (11760407_x_at) / RFU CLDN22 /// WWC2 (11732394_at) / Fold change /veh CLDN22 /// WWC2 (11732394_at) / RFU HLA-DPB1 (11760878_x_at) / Fold change /veh HLA-DPB1 (11760878_x_at) / RFU SPINT1 (11716480_a_at) / Fold change /veh SPINT1 (11716480_a_at) / RFU GAP43 (11754022_s_at) / Fold change /veh GAP43 (11754022_s_at) / RFU A4GNT (11735810_at) / Fold change /veh A4GNT (11735810_at) / RFU PRB3 (11715151_x_at) / Fold change /veh PRB3 (11715151_x_at) / RFU TUBB4B (11761932_at) / Fold change /veh TUBB4B (11761932_at) / RFU CAPN14 (11732068_a_at) / Fold change /veh CAPN14 (11732068_a_at) / RFU TMCC2 (11721928_a_at) / Fold change /veh TMCC2 (11721928_a_at) / RFU IRGQ (11745062_a_at) / Fold change /veh IRGQ (11745062_a_at) / RFU FAM174B (11720279_a_at) / Fold change /veh FAM174B (11720279_a_at) / RFU TMPRSS4 (11748680_a_at) / Fold change /veh TMPRSS4 (11748680_a_at) / RFU FAM212B (11763350_a_at) / Fold change /veh FAM212B (11763350_a_at) / RFU PLEKHG5 (11743358_a_at) / Fold change /veh PLEKHG5 (11743358_a_at) / RFU ZSCAN30 (11745921_a_at) / Fold change /veh ZSCAN30 (11745921_a_at) / RFU CMKLR1 (11741424_a_at) / Fold change /veh CMKLR1 (11741424_a_at) / RFU LOC101060620 /// MAPK8IP1 (11723275_at) / Fold change /veh LOC101060620 /// MAPK8IP1 (11723275_at) / RFU SPTSSB (11747773_x_at) / Fold change /veh SPTSSB (11747773_x_at) / RFU PRSS12 (11739890_at) / Fold change /veh PRSS12 (11739890_at) / RFU BIN1 (11741810_x_at) / Fold change /veh BIN1 (11741810_x_at) / RFU WNT11 (11732464_a_at) / Fold change /veh WNT11 (11732464_a_at) / RFU C10orf10 (11716521_a_at) / Fold change /veh C10orf10 (11716521_a_at) / RFU C5orf56 (11738089_at) / Fold change /veh C5orf56 (11738089_at) / RFU CYB561 (11721691_x_at) / Fold change /veh CYB561 (11721691_x_at) / RFU ANKRD19P (11752326_a_at) / Fold change /veh ANKRD19P (11752326_a_at) / RFU OR2T12 /// OR2T33 /// OR2T8 (11738714_s_at) / Fold change /veh OR2T12 /// OR2T33 /// OR2T8 (11738714_s_at) / RFU VCAN (11748164_a_at) / Fold change /veh VCAN (11748164_a_at) / RFU JSRP1 (11732532_at) / Fold change /veh JSRP1 (11732532_at) / RFU KRTAP10-11 (11738290_x_at) / Fold change /veh KRTAP10-11 (11738290_x_at) / RFU MYO3A (11730013_a_at) / Fold change /veh MYO3A (11730013_a_at) / RFU EBF3 (11725865_a_at) / Fold change /veh EBF3 (11725865_a_at) / RFU CAMK2N1 (11719241_x_at) / Fold change /veh CAMK2N1 (11719241_x_at) / RFU C5orf56 (11738088_a_at) / Fold change /veh C5orf56 (11738088_a_at) / RFU OLFML3 (11715873_a_at) / Fold change /veh OLFML3 (11715873_a_at) / RFU LOC100653217 /// NTM (11731650_a_at) / Fold change /veh LOC100653217 /// NTM (11731650_a_at) / RFU MAPK11 (11762145_a_at) / Fold change /veh MAPK11 (11762145_a_at) / RFU FIZ1 (11724087_x_at) / Fold change /veh FIZ1 (11724087_x_at) / RFU OASL (11726364_x_at) / Fold change /veh OASL (11726364_x_at) / RFU SOX15 (11748057_x_at) / Fold change /veh SOX15 (11748057_x_at) / RFU CD79A (11719716_a_at) / Fold change /veh CD79A (11719716_a_at) / RFU HIST1H1D (11736915_at) / Fold change /veh HIST1H1D (11736915_at) / RFU CASKIN2 (11723855_a_at) / Fold change /veh CASKIN2 (11723855_a_at) / RFU LOC730098 (11760151_x_at) / Fold change /veh LOC730098 (11760151_x_at) / RFU OR4N2 (11742367_at) / Fold change /veh OR4N2 (11742367_at) / RFU PRRT2 (11749266_a_at) / Fold change /veh PRRT2 (11749266_a_at) / RFU SNX32 (11753110_a_at) / Fold change /veh SNX32 (11753110_a_at) / RFU CDHR5 (11726645_a_at) / Fold change /veh CDHR5 (11726645_a_at) / RFU RCAN1 (11760418_a_at) / Fold change /veh RCAN1 (11760418_a_at) / RFU FAM167A (11723789_a_at) / Fold change /veh FAM167A (11723789_a_at) / RFU FAM26E (11764081_at) / Fold change /veh FAM26E (11764081_at) / RFU ISYNA1 (11749810_s_at) / Fold change /veh ISYNA1 (11749810_s_at) / RFU ACY1 (11761880_at) / Fold change /veh ACY1 (11761880_at) / RFU 11764098_at / Fold change /veh 11764098_at / RFU SAMD14 (11745864_x_at) / Fold change /veh SAMD14 (11745864_x_at) / RFU NPB (11741838_a_at) / Fold change /veh NPB (11741838_a_at) / RFU TMPRSS6 (11731388_a_at) / Fold change /veh TMPRSS6 (11731388_a_at) / RFU KRTAP10-2 (11738614_at) / Fold change /veh KRTAP10-2 (11738614_at) / RFU ARHGAP8 /// PRR5-ARHGAP8 (11727945_x_at) / Fold change /veh ARHGAP8 /// PRR5-ARHGAP8 (11727945_x_at) / RFU KRTAP5-7 /// NADSYN1 (11734609_at) / Fold change /veh KRTAP5-7 /// NADSYN1 (11734609_at) / RFU RASL12 (11751679_a_at) / Fold change /veh RASL12 (11751679_a_at) / RFU CDKN2B (11736163_a_at) / Fold change /veh CDKN2B (11736163_a_at) / RFU PRF1 (11729649_at) / Fold change /veh PRF1 (11729649_at) / RFU, ZNF638 /// ZNF638-IT1 / Fold change vs veh, ZNF638 /// ZNF638-IT1 / RFU, PANK3 / Fold change vs veh, PANK3 / RFU, SH3YL1 / Fold change vs veh, SH3YL1 / RFU, ZEB2 / Fold change vs veh, ZEB2 / RFU, NRIP1 / Fold change vs veh, NRIP1 / RFU, PTTG1IP / Fold change vs veh, PTTG1IP / RFU, CAPN2 / Fold change vs veh, CAPN2 / RFU, MED14 / Fold change vs veh, MED14 / RFU, SNORA58 / Fold change vs veh, SNORA58 / RFU, C1orf63 / Fold change vs veh, C1orf63 / RFU, LRRFIP1 / Fold change vs veh, LRRFIP1 / RFU, NDUFAF7 / Fold change vs veh, NDUFAF7 / RFU, SLC12A2 / Fold change vs veh, SLC12A2 / RFU, IBTK / Fold change vs veh, IBTK / RFU, ESF1 / Fold change vs veh, ESF1 / Fold change vs veh, TMEM50B / RFU, TAOK1 / Fold change vs veh, TAOK1 / RFU, ACBD3 / Fold change vs veh, ACBD3 / RFU, TMA16 / Fold change vs veh, TMA16 / RFU, RWDD3 / Fold change vs veh, RWDD3 / RFU, BCAT1 / Fold change vs veh, BCAT1 / RFU, EDEM3 / Fold change vs veh, EDEM3 / RFU, TMEM33 / Fold change vs veh, TMEM33 / RFU, WDR75 / Fold change vs veh, WDR75 / RFU, AHCTF1 / Fold change vs veh, AHCTF1 / RFU, TFRC / Fold change vs veh, TFRC / RFU, ZDHHC17 / Fold change vs veh, ZDHHC17 / RFU, NOM1 / Fold change vs veh, NOM1 / RFU, ARL8B / Fold change vs veh, ARL8B / RFU, ZBTB11 / Fold change vs veh, ZBTB11 / RFU, TAMM41 / Fold change vs veh, TAMM41 / RFU, KIAA1704 /// LOC100996395 / Fold change vs veh, KIAA1704 /// LOC100996395 / RFU, ING1 / Fold change vs veh, ING1 / RFU, TRMT61B / Fold change vs veh, TRMT61B / RFU, FUBP3 / Fold change vs veh, FUBP3 / RFU, TP53 / Fold change vs veh, TP53 / RFU, TNKS2 / Fold change vs veh, TNKS2 / RFU, ZFP14 / Fold change vs veh, ZFP14 / RFU, ACTR2 / Fold change vs veh, ACTR2 / RFU, PPP3R1 / Fold change vs veh, PPP3R1 / RFU, PIK3R1 / Fold change vs veh, PIK3R1 / RFU, HNRNPA1 / Fold change vs veh, HNRNPA1 / RFU, RNF170 / Fold change vs veh, RNF170 / RFU, ZNF28 / Fold change vs veh, ZNF28 / RFU, RNGTT / Fold change vs veh, RNGTT / RFU, OGT / Fold change vs veh, OGT / RFU, BRD1 / Fold change vs veh, BRD1 / RFU, MARS / Fold change vs veh, MARS / RFU, ZNF655 / Fold change vs veh, ZNF655 / RFU, FAHD1 / Fold change vs veh, FAHD1 / RFU, BDP1 / Fold change vs veh, BDP1 / RFU, LRRCC1 / Fold change vs veh, LRRCC1 / RFU, ARID1A / Fold change vs veh, ARID1A / RFU, ZNF146 / Fold change vs veh, ZNF146 / RFU, ZNF330 / Fold change vs veh, ZNF330 / RFU, GPN3 / Fold change vs veh, GPN3 / RFU, C9orf123 / Fold change vs veh, C9orf123 / RFU, N4BP2L2 / Fold change vs veh, N4BP2L2 / RFU, ARFIP1 / Fold change vs veh, ARFIP1 / RFU, FAM179B / Fold change vs veh, FAM179B / RFU, BCL10 / Fold change vs veh, BCL10 / RFU, UHRF1BP1L / Fold change vs veh, UHRF1BP1L / RFU, BET1 / Fold change vs veh, BET1 / RFU, CNOT2 / Fold change vs veh, CNOT2 / RFU, ZNF268 / Fold change vs veh, ZNF268 / Fold change vs veh, ZNF507 / RFU, DGCR2 / Fold change vs veh, DGCR2 / RFU, WDSUB1 / Fold change vs veh, WDSUB1 / Fold change vs veh, HSP90B1 /// MIR3652 / RFU, ADSS / Fold change vs veh, ADSS / RFU, GK / Fold change vs veh, GK / RFU, ZNF148 / Fold change vs veh, ZNF148 / RFU, TAF9 / Fold change vs veh, TAF9 / RFU, SLC1A5 / Fold change vs veh, SLC1A5 / RFU, SLMO2 / Fold change vs veh, SLMO2 / RFU, ABCC4 / Fold change vs veh, ABCC4 / RFU, LOC101060439 /// RAP1B / Fold change vs veh, LOC101060439 /// RAP1B / RFU, RFX7 / Fold change vs veh, RFX7 / RFU, GTPBP10 / Fold change vs veh, GTPBP10 / RFU, CNEP1R1 / Fold change vs veh, CNEP1R1 / RFU, BIVM-ERCC5 /// ERCC5 / Fold change vs veh, BIVM-ERCC5 /// ERCC5 / RFU, ILF3 / Fold change vs veh, ILF3 / RFU 11762660_at / Fold change /veh 11762660_at / RFU VCAN (11757783_s_at) / Fold change /veh VCAN (11757783_s_at) / RFU DDX43 (11728927_at) / Fold change /veh DDX43 (11728927_at) / RFU KRT8 (11758188_x_at) / Fold change /veh KRT8 (11758188_x_at) / RFU NKD1 (11759106_at) / Fold change /veh NKD1 (11759106_at) / RFU SRD5A1 (11742802_a_at) / Fold change /veh SRD5A1 (11742802_a_at) / RFU TPSAB1 /// TPSB2 (11721975_s_at) / Fold change /veh TPSAB1 /// TPSB2 (11721975_s_at) / RFU GSTM3 (11746129_a_at) / Fold change /veh GSTM3 (11746129_a_at) / RFU IL23R (11737362_x_at) / Fold change /veh IL23R (11737362_x_at) / RFU TMEM51 (11727254_a_at) / Fold change /veh TMEM51 (11727254_a_at) / RFU PIWIL2 (11732686_x_at) / Fold change /veh PIWIL2 (11732686_x_at) / RFU ORM1 (11744905_x_at) / Fold change /veh ORM1 (11744905_x_at) / RFU CCDC152 (11743942_at) / Fold change /veh CCDC152 (11743942_at) / RFU ECM1 (11717891_a_at) / Fold change /veh ECM1 (11717891_a_at) / RFU IL23R (11748794_a_at) / Fold change /veh IL23R (11748794_a_at) / RFU TNFAIP8L3 (11732012_x_at) / Fold change /veh TNFAIP8L3 (11732012_x_at) / RFU MBOAT4 (11741988_at) / Fold change /veh MBOAT4 (11741988_at) / RFU 11764193_at / Fold change /veh 11764193_at / RFU TMEM53 (11763286_at) / Fold change /veh TMEM53 (11763286_at) / RFU MAGEB2 (11727129_at) / Fold change /veh MAGEB2 (11727129_at) / RFU TMEM200A (11744735_a_at) / Fold change /veh TMEM200A (11744735_a_at) / RFU CCDC152 (11751479_a_at) / Fold change /veh CCDC152 (11751479_a_at) / RFU FAM211A (11726209_a_at) / Fold change /veh FAM211A (11726209_a_at) / RFU RGS16 (11746705_a_at) / Fold change /veh RGS16 (11746705_a_at) / RFU VCAN (11755009_s_at) / Fold change /veh VCAN (11755009_s_at) / RFU RHOB (11743442_s_at) / Fold change /veh RHOB (11743442_s_at) / RFU RGS16 (11720943_a_at) / Fold change /veh RGS16 (11720943_a_at) / RFU RGS16 (11720944_at) / Fold change /veh RGS16 (11720944_at) / RFU, VPS4B / Fold change vs veh, VPS4B / RFU, CREB1 / Fold change vs veh, CREB1 / RFU, DNAJC13 / Fold change vs veh, DNAJC13 / RFU, GNAQ / Fold change vs veh, GNAQ / RFU, CDK5R1 / Fold change vs veh, CDK5R1 / RFU, ZRANB3 / Fold change vs veh, ZRANB3 / RFU, CUL4A / Fold change vs veh, CUL4A / RFU, CCNY / Fold change vs veh, CCNY / RFU, UFL1 / Fold change vs veh, UFL1 / RFU, COG3 / Fold change vs veh, COG3 / RFU, DIAPH2 / Fold change vs veh, DIAPH2 / RFU, SKA2 / Fold change vs veh, SKA2 / RFU, AFF3 / Fold change vs veh, AFF3 / RFU, LMF1 / Fold change vs veh, LMF1 / RFU, IPO11 / Fold change vs veh, IPO11 / RFU, DFFB / Fold change vs veh, DFFB / RFU, FOXP1 / Fold change vs veh, FOXP1 / RFU, CARD8 / Fold change vs veh, CARD8 / RFU, STRN3 / Fold change vs veh, STRN3 / RFU, ADK / Fold change vs veh, ADK / RFU, RASSF2 / Fold change vs veh, RASSF2 / RFU, WIPF1 / Fold change vs veh, WIPF1 / RFU, LARP1B / Fold change vs veh, LARP1B / RFU, RASA1 / Fold change vs veh, RASA1 / RFU, RB1 / Fold change vs veh, RB1 / RFU, PPFIA1 / Fold change vs veh, PPFIA1 / RFU, MAT2A / Fold change vs veh, MAT2A / RFU, CCT5 / Fold change vs veh, CCT5 / RFU, WDR92 / Fold change vs veh, WDR92 / RFU, CUX1 / Fold change vs veh, CUX1 / RFU, TTC7A / Fold change vs veh, TTC7A / RFU, TMEM135 / Fold change vs veh, TMEM135 / RFU, DEPTOR / Fold change vs veh, DEPTOR / RFU, CPM / Fold change vs veh, CPM / RFU, DNAJB6 / Fold change vs veh, DNAJB6 / RFU, CACNA2D3 / Fold change vs veh, CACNA2D3 / RFU, DTX4 / Fold change vs veh, DTX4 / RFU, TFCP2 / Fold change vs veh, TFCP2 / RFU, GMCL1 /// GMCL1P1 / Fold change vs veh, GMCL1 /// GMCL1P1 / RFU, AEBP2 / Fold change vs veh, AEBP2 / RFU, SNHG1 /// SNORD22 /// SNORD25 /// SNORD26 /// SNORD27 /// SNORD28 /// SNORD29 /// SNORD31 / Fold change vs veh, SNHG1 /// SNORD22 /// SNORD25 /// SNORD26 /// SNORD27 /// SNORD28 /// SNORD29 /// SNORD31 / Fold change (Aza/veh), C12orf56 (ProbeSet 11735607_a_at) / Fold change (ACY-1035/veh), C12orf56 (ProbeSet 11735607_a_at) / Fold change (Aza/veh), FGFR1OP (ProbeSet 11751329_s_at) / Fold change (ACY-1035/veh), FGFR1OP (ProbeSet 11751329_s_at) / Fold change (Aza/veh), VPS36 (ProbeSet 11739960_a_at) / Fold change (ACY-1035/veh), VPS36 (ProbeSet 11739960_a_at) / RFU SYPL1 (11715823_x_at) / Fold change /veh SYPL1 (11715823_x_at) / RFU IGFBP7 (11715501_s_at) / Fold change /veh IGFBP7 (11715501_s_at) / RFU REEP3 (11722064_at) / Fold change /veh REEP3 (11722064_at) / RFU IGLL1 (11728026_x_at) / Fold change /veh IGLL1 (11728026_x_at): dose or concentration left out as unconfirmed
# Details: ProbeSet 11727545_at; LIST B
smiles,measurement,value
Nc1ccc(-c2cccs2)cc1NC(=O)c1ccc2c(c1)cc(C1CC1)n2CCN1CCOCC1 [ACY-1035],"Fold change vs veh, PANK3",0.83
